Results published in patent EP1144365B1 (TANABE SEIYAKU CO., LTD., priority 1998, dated 2000).
Where a name gives a salt, the structure may show the parent alone.

Key:
α4β1 integrin = target: T1, α4β1 integrin (Homo sapiens, UniProt P05556+P13612); test: Jurkat-Endothelial Cell Adhesion Assay (Jurkat EC); format: cell-based; conditions: Jurkat cell adhesion to IL-1 stimulated endothelial cell monolayers
T1 construct: a T-cell line, Jurkat, known to express the α4β1 integrin; host or cells: Jurkat T-cell line
How it was run: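 BCECF-loaded Jurkat T cells (5 x 10^5) mixed with compound, generally 100, 20, 5 and 1.25 µM, in DMEM-HSA, added to HUVEC monolayers prestimulated 4 h with 0.1 ng/ml IL-1. After washing, adherent-cell fluorescence read; % adhesion relative to no-compound control set at 100%.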

α4β1 = target: T2, α4β1 (Homo sapiens, UniProt P05556+P13612); test: Jurkat-CS-1 assay; format: cell-based; conditions: Jurkat cell adhesion to immobilized CS-1 derived peptide
T2 construct: 100 µl of Jurkat cells (2.5 x 10^6 cells/ml) in DMEM plus BSA; host or cells: Jurkat T-cell line
T2 sequence (P13612 34-1032): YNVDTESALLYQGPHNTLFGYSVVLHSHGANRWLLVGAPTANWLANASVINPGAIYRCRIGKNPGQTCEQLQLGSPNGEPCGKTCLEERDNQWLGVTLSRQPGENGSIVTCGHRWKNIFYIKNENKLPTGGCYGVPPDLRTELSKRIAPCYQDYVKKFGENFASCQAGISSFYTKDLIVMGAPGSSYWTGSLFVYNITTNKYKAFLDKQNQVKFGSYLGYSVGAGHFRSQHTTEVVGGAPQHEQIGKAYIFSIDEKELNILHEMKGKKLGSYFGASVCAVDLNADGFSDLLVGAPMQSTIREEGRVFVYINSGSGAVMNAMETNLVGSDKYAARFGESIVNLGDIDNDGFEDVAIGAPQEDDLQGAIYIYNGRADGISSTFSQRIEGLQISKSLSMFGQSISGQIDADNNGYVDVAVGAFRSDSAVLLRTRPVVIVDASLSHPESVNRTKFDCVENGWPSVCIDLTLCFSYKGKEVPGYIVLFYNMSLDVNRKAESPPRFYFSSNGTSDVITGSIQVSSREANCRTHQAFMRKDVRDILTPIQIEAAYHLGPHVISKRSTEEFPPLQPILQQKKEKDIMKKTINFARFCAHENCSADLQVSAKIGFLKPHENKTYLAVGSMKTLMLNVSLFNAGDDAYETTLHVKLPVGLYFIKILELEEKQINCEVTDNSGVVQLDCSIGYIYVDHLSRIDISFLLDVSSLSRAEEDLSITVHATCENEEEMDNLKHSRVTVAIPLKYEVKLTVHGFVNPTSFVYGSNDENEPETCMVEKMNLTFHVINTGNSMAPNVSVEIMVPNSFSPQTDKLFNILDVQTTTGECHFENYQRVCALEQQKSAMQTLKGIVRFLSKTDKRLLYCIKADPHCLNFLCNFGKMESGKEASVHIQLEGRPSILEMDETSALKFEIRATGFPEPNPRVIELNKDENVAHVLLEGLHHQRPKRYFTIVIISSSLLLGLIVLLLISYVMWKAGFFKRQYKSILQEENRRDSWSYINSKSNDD
T2 sequence (P05556 21-798): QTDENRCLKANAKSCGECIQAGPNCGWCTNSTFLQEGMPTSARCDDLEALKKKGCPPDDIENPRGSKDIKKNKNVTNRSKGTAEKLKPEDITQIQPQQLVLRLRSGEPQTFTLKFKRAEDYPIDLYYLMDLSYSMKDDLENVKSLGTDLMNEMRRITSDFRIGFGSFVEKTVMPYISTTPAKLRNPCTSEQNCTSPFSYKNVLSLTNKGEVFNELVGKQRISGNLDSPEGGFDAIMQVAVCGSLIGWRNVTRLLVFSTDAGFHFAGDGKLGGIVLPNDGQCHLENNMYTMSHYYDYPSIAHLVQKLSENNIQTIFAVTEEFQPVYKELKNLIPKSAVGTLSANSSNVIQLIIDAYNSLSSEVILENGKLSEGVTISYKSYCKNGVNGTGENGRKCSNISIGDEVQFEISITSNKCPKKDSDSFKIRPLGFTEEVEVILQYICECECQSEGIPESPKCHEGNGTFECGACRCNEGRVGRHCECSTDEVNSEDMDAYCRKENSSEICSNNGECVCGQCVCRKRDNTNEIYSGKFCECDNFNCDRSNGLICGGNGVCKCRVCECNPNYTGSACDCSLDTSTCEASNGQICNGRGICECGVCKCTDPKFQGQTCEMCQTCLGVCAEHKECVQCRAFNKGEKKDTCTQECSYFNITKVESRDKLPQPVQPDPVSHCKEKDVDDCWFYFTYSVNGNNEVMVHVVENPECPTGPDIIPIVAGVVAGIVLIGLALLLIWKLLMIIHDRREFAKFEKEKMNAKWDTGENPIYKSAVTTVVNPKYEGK

T1 sequence (P13612 34-1032): as the sequence (P13612 34-1032) above
T1 sequence (P05556 21-798): as the sequence (P05556 21-798) above

Row | IC50 (α4β1 integrin) | IC50 (α4β1) | SMILES
1 | 800 to 5000 nM | 80 to 500 nM | CC(=O)[C@@H]1C[C@H](C(=O)N[C@@H](Cc2ccc(NC(=O)c3ccc(Cl)nc3Cl)cc2)C(=O)O)C1(C)C [Example 107, (1S-cis)-N-[(3-Acetyl-2,2-dimethylcyclobutyl)carbonyl]-4-[[(2,6-dichloro-3-pyridinyl)carbonyl]amino]-L-phenylalanine]
2 | ≤ 800 nM | 80 to 500 nM | O=C(Nc1ccc(C[C@H](NC(=O)N2CCCC(C(=O)O)C2)C(=O)O)cc1)c1c(Cl)cccc1Cl (stereo partly drawn) [Example 114, 1-[[[(1S)-1-carboxy-2-[4-[(2,6-dichlorobenzoyl)amino]phenyl]ethyl]amino]carbonyl]-3-piperidinecarboxylic acid]
3 | 800 to 5000 nM | 80 to 500 nM | O=C(Nc1ccc(C[C@H](NC(=O)N2CCCC(C(=O)O)C2)C(=O)O)cc1)c1c(Cl)cccc1Cl (stereo partly drawn) [Example 115, 1-[[((1S)-1-carboxy-2-[4-[(2,6-dichlorobenzoyl)amino]phenyl]ethyl)amino]carbonyl]-3-piperidinecarboxylic acid]
4 | ≤ 800 nM | 80 to 500 nM | O=C(Nc1ccc(C[C@H](NC(=O)N2CCCC(C(=O)O)C2)C(=O)O)cc1)c1c(Cl)cccc1Cl (stereo partly drawn) [Example 116, 1-[[[(1S)-1-carboxy-2-[4-[(2,6-dichlorobenzoyl)amino]phenyl]ethyl]amino]carbonyl]-3-piperidinecarboxylic acid]
5 | ≤ 800 nM | 80 to 500 nM | O=C(Nc1ccc(C[C@H](NC(=S)N2CCCC(C(=O)O)C2)C(=O)O)cc1)c1c(Cl)cccc1Cl (stereo partly drawn) [Example 117, 1-[[[(1S)-1-carboxy-2-[4-[(2,6-dichlorobenzoyl)amino]phenyl]ethyl]amino]thiocarbonyl]-3-piperidinecarboxylic acid]
6 | ≤ 800 nM | ≤ 80 nM | CC1=C(C(=O)N[C@@H](Cc2ccc(NC(=O)c3c(Cl)cccc3Cl)cc2)C(=O)O)C(C)(C)CC/C1=C\C(=O)O [Example 118, N-[[(3E)-3-Carboxymethylene-2,6,6-trimethyl-1-cyclohexen-1-yl]carbonyl]-4-[(2,6-dichlorobenzoyl)amino]-L-phenylalanine]
7 | ≤ 800 nM | ≤ 80 nM | CC1=C(C(=O)N[C@@H](Cc2ccc(OCc3c(Cl)cccc3Cl)cc2)C(=O)O)C(C)(C)CC/C1=C\C(=O)O [Example 119, N-[[(3E)-3-Carboxymethylene-2,6,6-trimethyl-1-cyclohexen-1-yl]carbonyl]-4-O-(2,6-dichlorophenylmethyl)-L-tyrosine]
8 | ≤ 800 nM | ≤ 80 nM | CC1=C(C(=O)N[C@@H](Cc2ccc(NC(=O)c3c(Cl)cccc3Cl)cc2)C(=O)O)C(C)(C)CC/C1=C\C#N [Example 120, N-[[(3E)-3-Cyanomethylene-2,6,6-trimethyl-1-cyclohexen-1-yl]carbonyl]-4-[(2,6-dichlorobenzoyl)amino]-L-phenylalanine]
9 | 800 to 5000 nM | 500 to 1000 nM | O=C(O)/C=C/c1cccc(C(=O)N[C@@H](Cc2ccc(NC(=O)c3c(Cl)cccc3Cl)cc2)C(=O)O)c1 [Example 124, N-[[3-[(E)-3-Hydroxy-3-oxo-1-propenyl]phenyl]carbonyl]-4-[(2,6-dichlorobenzoyl)amino]-L-phenylalanine]
10 | 800 to 5000 nM | ≤ 80 nM | O=C(O)/C=C/c1ccc(C(=O)N[C@@H](Cc2ccc(NC(=O)c3c(Cl)cccc3Cl)cc2)C(=O)O)cc1 [Example 125, N-[[4-[(E)-3-Hydroxy-3-oxo-1-propenyl]phenyl]carbonyl]-4-[(2,6-dichlorobenzoyl)amino] -L-phenylalanine]
11 | 800 to 5000 nM | ≤ 80 nM | O=C(O)C=C1CCC(C(=O)N[C@@H](Cc2ccc(NC(=O)c3c(Cl)cccc3Cl)cc2)C(=O)O)CC1 (stereo partly drawn) [Example 126, N-[[4-(Carboxymethylene)cyclohexyl]carbonyl]-4-[(2,6-dichlorobenzoyl)amino]-L-phenylalanine]
12 | 800 to 5000 nM | 80 to 500 nM | O=C(C=C1CCC(C(=O)O)CC1)N[C@@H](Cc1ccc(NC(=O)c2c(Cl)cccc2Cl)cc1)C(=O)O (stereo partly drawn) [Example 127, N-[4-Carboxy-1-cyclohexylideneacetyl]-4-[(2,6-dichlorobenzoyl)amino]-L-phenylalanine]
13 | 800 to 5000 nM | 500 to 1000 nM | COC(=O)[C@H](Cc1ccc(NC(=O)c2c(Cl)cccc2Cl)cc1)NC(=O)c1cccc2c1CCC/C2=C/C(=O)O [Example 130, N-[[(5Z)-5-Carboxymethylene-7,8-dihydro-1(6H)-naphthyl]carbonyl]-4-[(2,6-dichlorobenzoyl)amino]-L-phenylalanine methyl ester]
14 | ≤ 800 nM | ≤ 80 nM | O=C(O)/C=C1/CCCc2c(C(=O)N[C@@H](Cc3ccc(NC(=O)c4c(Cl)cccc4Cl)cc3)C(=O)O)cccc21 [Example 131, N-[[(5Z)-5-Carboxymethylene-7,8-dihydro-1(6H)-naphthyl]carbonyl]-4-[(2,6-dichlorobenzoyl)amino]-L-phenylalanine]
15 | ≤ 800 nM | 80 to 500 nM | O=C(O)/C=C1\CCCc2c(C(=O)N[C@@H](Cc3ccc(NC(=O)c4c(Cl)cccc4Cl)cc3)C(=O)O)cccc21 [Example 134, N-[[(5E)-5-Carboxymethylene-7,8-dihydro-1(6H)-naphthyl]carbonyl]-4-[(2,6-dichlorobenzoyl)amino]-L-phenylalanine]

Row | SMILES | IC50 (α4β1 integrin) | IC50 (α4β1)
16 | O=C(/C=C/c1ccc(C(=O)O)cc1)N[C@@H](Cc1ccc(NC(=O)c2c(Cl)cccc2Cl)cc1)C(=O)O [Example 123] | 5000 to 10000 nM | 500 to 1000 nM
17 | CC1(C)CC(C(=O)O)CC/C1=C\C(=O)N[C@@H](Cc1ccc(NC(=O)c2c(Cl)cccc2Cl)cc1)C(=O)O (stereo partly drawn) [Example 128, N-[(1E)-4-Carboxy-2,2-dimethyl-1-cyclohexylideneacetyl]-4-[(2,6-dichlorobenzoyl)amino]-L-phenylalanine] | 800 to 5000 nM | 80 to 500 nM
18 | O=C(O)/C=C1\CCCc2cc(C(=O)N[C@@H](Cc3ccc(NC(=O)c4c(Cl)cccc4Cl)cc3)C(=O)O)ccc21 [Example 135, N-[[(5E)-5-Carboxymethylene-7,8-dihydro-2(6H)-naphthyl]carbonyl]-4-[(2,6-dichlorobenzoyl)amino]-L-phenylalanine sodium salt] | 5000 to 10000 nM | 500 to 1000 nM
